Experimental data from ChEMBL document CHEMBL1201862, “PubChem BioAssay data set” (2004).
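Compound exposure: 48 hours, 5 concentrations, 96-well plates. GI50 is the concentration that inhibits growth by half.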 Activity calls are given as the source filed them. No stated cut-off is given here; in the data, active = GI50 up to about 1.1 µM and inactive = higher.

Tests used:
Assay in all cases: inhibition of tumour cell growth, NCI panel, 48 h
SNB-19 = system: SNB-19
DU-145 = system: DU-145
PC-3 = system: PC-3
OVCAR-3 = system: OVCAR-3
EKVX = system: EKVX
COLO 205 = system: COLO 205
Hs-578T = system: Hs-578T
OVCAR-8 = system: OVCAR-8
MOLT-4 = system: MOLT-4
HL-60 = system: HL-60
SF-295 = system: SF-295
HOP-62 = system: HOP-62
CAKI-1 = system: CAKI-1
UO-31 = system: UO-31
A498 = system: A498
Malme-3M = system: Malme-3M
SF-539 = system: SF-539
SW-620 = system: SW-620
UACC-62 = system: UACC-62
RXF 393 = system: RXF 393
IGROV-1 = system: IGROV-1
HT-29 = system: HT-29
OVCAR-5 = system: OVCAR-5
SK-MEL-28 = system: SK-MEL-28
HCT-116 = system: HCT-116
BT-549 = system: BT-549
K562 = system: K562
NCI-H23 = system: NCI-H23
786-0 = system: 786-0
MCF7 = system: MCF7
SK-OV-3 = system: SK-OV-3
U-251 = system: U-251
LOX IMVI = system: LOX IMVI
NCI-H460 = system: NCI-H460
NCI-H226 = system: NCI-H226
UACC-257 = system: UACC-257
MDA-MB-231 = system: MDA-MB-231
TK-10 = system: TK-10
SF-268 = system: SF-268
NCI/ADR-RES = system: NCI/ADR-RES
ACHN = system: ACHN
MDA-N = system: MDA-N
MDA-MB-435 = system: MDA-MB-435
KM12 = system: KM12
SNB-75 = system: SNB-75
SN12C = system: SN12C
T47D = system: T47D
HCT-15 = system: HCT-15
M14 = system: M14
A549 = system: A549
NCI-H522 = system: NCI-H522
SK-MEL-5 = system: SK-MEL-5
SK-MEL-2 = system: SK-MEL-2
RPMI-8226 = system: RPMI-8226
OVCAR-4 = system: OVCAR-4
CCRF-CEM = system: CCRF-CEM
HCC 2998 = system: HCC 2998
HOP-92 = system: HOP-92

Measured: GI50

C=C[C@H]1CN2CC[C@H]1C[C@@H]2[C@@H](O)c1ccnc2ccccc12 [CINCHONINE]
> 100 µM: HCT-15
inactive: SNB-19 > 100 µM | DU-145 > 100 µM | PC-3 > 100 µM | OVCAR-3 > 100 µM | EKVX 73.3 µM | COLO 205 > 100 µM | Hs-578T 1.26 µM | OVCAR-8 > 100 µM | MOLT-4 > 100 µM | HL-60 > 100 µM | SF-295 > 100 µM | HOP-62 89.9 µM | CAKI-1 > 100 µM | UO-31 52.7 µM | A498 63 µM | Malme-3M > 100 µM | SF-539 > 100 µM | SW-620 > 100 µM | UACC-62 > 100 µM | RXF 393 > 100 µM | IGROV-1 19.6 µM | HT-29 46.8 µM | OVCAR-5 > 100 µM | SK-MEL-28 > 100 µM | HCT-116 > 100 µM | BT-549 > 100 µM | K562 55.2 µM | NCI-H23 > 100 µM | 786-0 > 100 µM | MCF7 > 100 µM | SK-OV-3 > 100 µM | U-251 > 100 µM | LOX IMVI 5.4 µM | NCI-H460 > 100 µM | NCI-H226 > 100 µM | UACC-257 > 100 µM | MDA-MB-231 > 100 µM | TK-10 > 100 µM | SF-268 > 100 µM | NCI/ADR-RES > 100 µM | ACHN > 100 µM | MDA-N > 100 µM | MDA-MB-435 > 100 µM | KM12 > 100 µM | SNB-75 22.8 µM | SN12C > 100 µM | T47D > 100 µM | M14 38.1 µM | A549 > 100 µM | NCI-H522 > 100 µM | SK-MEL-5 > 100 µM | SK-MEL-2 > 100 µM | RPMI-8226 22.9 µM | OVCAR-4 58.6 µM

CN(C)c1ccc(/C=C2\N=C(NNc3ccccc3)NC2=O)cc1
22 µM: HCT-15
active: MOLT-4 < 0.01 µM | CCRF-CEM < 0.01 µM
inactive: SNB-19 35.6 µM | DU-145 28.4 µM | PC-3 13.2 µM | OVCAR-3 16 µM | EKVX 19 µM | COLO 205 15.6 µM | Hs-578T 35 µM | OVCAR-8 30.9 µM | SF-295 21.5 µM | HOP-62 30.3 µM | CAKI-1 26.2 µM | UO-31 31 µM | A498 17.1 µM | Malme-3M 38.2 µM | SF-539 19.5 µM | SW-620 26.8 µM | UACC-62 28.8 µM | RXF 393 18.7 µM | IGROV-1 23.4 µM | HT-29 16.9 µM | OVCAR-5 31.8 µM | SK-MEL-28 29.1 µM | HCT-116 22.9 µM | BT-549 30 µM | NCI-H23 20 µM | 786-0 17.9 µM | MCF7 17.9 µM | SK-OV-3 27.5 µM | HCC 2998 14 µM | U-251 14.3 µM | LOX IMVI 27.8 µM | NCI-H460 19.1 µM | UACC-257 15.6 µM | MDA-MB-231 13.7 µM | TK-10 20.8 µM | SF-268 27.3 µM | NCI/ADR-RES 19.8 µM | ACHN 20.2 µM | MDA-N 27.7 µM | MDA-MB-435 21.5 µM | KM12 13.2 µM | SNB-75 25.5 µM | SN12C 17.7 µM | T47D 11.7 µM | HOP-92 17.3 µM | M14 37.3 µM | A549 20.4 µM | NCI-H522 18.8 µM | SK-MEL-2 18.7 µM | RPMI-8226 16 µM | OVCAR-4 24.2 µM

O=c1[nH]c2ccccc2n1CCCN1CCC(n2c(=O)[nH]c3cc(Cl)ccc32)CC1 [DOMPERIDONE]
18.7 µM: HCT-15
inactive: DU-145 19 µM | PC-3 19.4 µM | OVCAR-3 17.9 µM | EKVX 22.8 µM | COLO 205 12.7 µM | Hs-578T 19.6 µM | OVCAR-8 18.3 µM | MOLT-4 13.9 µM | HL-60 17.3 µM | HOP-62 18.3 µM | CAKI-1 15.7 µM | UO-31 4.7 µM | A498 23 µM | Malme-3M 17.5 µM | CCRF-CEM 27.8 µM | SW-620 17.3 µM | UACC-62 18.3 µM | RXF 393 16 µM | IGROV-1 19.2 µM | HT-29 14.6 µM | OVCAR-5 20.2 µM | SK-MEL-28 17 µM | HCT-116 16.8 µM | BT-549 18 µM | K562 21.4 µM | NCI-H23 17.3 µM | 786-0 14.4 µM | MCF7 18 µM | SK-OV-3 23.7 µM | HCC 2998 16.7 µM | NCI-H460 17.4 µM | NCI-H226 24 µM | UACC-257 16.9 µM | MDA-MB-231 17.6 µM | TK-10 20.2 µM | NCI/ADR-RES 23.3 µM | ACHN 18.8 µM | MDA-N 15.8 µM | MDA-MB-435 16.2 µM | KM12 16.9 µM | SN12C 16.3 µM | T47D 16.3 µM | HOP-92 22.2 µM | M14 16 µM | A549 21.8 µM | NCI-H522 15.4 µM | SK-MEL-5 14.6 µM | SK-MEL-2 19.2 µM | RPMI-8226 20.1 µM | OVCAR-4 17.2 µM
